Results: article PMC6078800 (Nature biotechnology, 2018)

Columns and labels:
[1] = molecular target: T1, Mp-KYNase (Mucilaginibacter paludis, UniProt H1YAV1); assay: absorbance at […] nm, initial rates, Michaelis-Menten fit; format: biochemical; conditions: DPBS pH 7.4; enzyme PLP-loaded; not PEGylated
T1 sequence (H1YAV1 1-429): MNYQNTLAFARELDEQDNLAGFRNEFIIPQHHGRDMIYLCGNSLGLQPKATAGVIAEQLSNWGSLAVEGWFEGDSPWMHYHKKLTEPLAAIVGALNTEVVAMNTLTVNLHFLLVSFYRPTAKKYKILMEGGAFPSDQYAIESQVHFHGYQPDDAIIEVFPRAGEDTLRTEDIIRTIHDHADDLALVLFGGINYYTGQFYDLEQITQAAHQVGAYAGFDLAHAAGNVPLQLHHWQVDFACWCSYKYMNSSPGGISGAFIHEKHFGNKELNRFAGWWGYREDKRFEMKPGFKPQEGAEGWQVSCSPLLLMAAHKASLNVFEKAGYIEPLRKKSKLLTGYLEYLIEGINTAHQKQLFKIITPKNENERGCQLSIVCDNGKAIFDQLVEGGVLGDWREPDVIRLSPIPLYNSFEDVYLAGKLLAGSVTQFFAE

[2] = molecular target: T2, Pf-KYNase (Pseudomonas fluorescens, UniProt P83788); assay: as above; format: biochemical; conditions: DPBS pH 7.4; enzyme PLP-loaded; not PEGylated
T2 sequence (P83788 1-416): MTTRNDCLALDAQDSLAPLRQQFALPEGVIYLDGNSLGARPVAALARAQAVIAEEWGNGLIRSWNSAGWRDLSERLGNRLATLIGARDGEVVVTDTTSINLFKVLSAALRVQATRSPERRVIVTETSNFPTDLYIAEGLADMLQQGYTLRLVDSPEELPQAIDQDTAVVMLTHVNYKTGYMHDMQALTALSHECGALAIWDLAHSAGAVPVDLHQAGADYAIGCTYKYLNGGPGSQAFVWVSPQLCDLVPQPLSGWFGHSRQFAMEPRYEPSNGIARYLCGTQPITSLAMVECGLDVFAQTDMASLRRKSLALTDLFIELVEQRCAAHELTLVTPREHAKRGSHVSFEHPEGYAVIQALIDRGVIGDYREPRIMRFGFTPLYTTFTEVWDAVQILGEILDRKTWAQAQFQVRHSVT

## Nc1ccccc1C(=O)C[C@H](N)C(=O)O [kynurenine]
[1]
  KM: kinetic parameters for the kynureninase enzymes against both kynurenine (Kyn, Sigma)
[2]
  KM: kinetic parameters for the kynureninase enzymes against both kynurenine (Kyn, Sigma)
